In article PMC10269604, “A 4-Hydroxybenzoic Acid-Mediated Signaling System Controls the Physiology and Virulence of Shigella sonnei” (Microbiology Spectrum, 2023):

Assays:
AaeR (SSON_3385) = details: AaeR labelled with L014 Monolith protein labeling kit; 60% LED power, 40% MST power
UbiC (SSON_4219) = biological target: T1, UbiC (SSON_4219) (Shigella sonnei, UniProt Q3YUU5); assay: in vitro conversion to 4-HBA; format: biochemical; details: product 4-hydroxybenzoic acid
T1 construct: intact ubiC gene in pET28a(+), His-tagged fusion, expressed in E. coli BL21(DE3), His-Tag column
T1 sequence (Q3YUU5 whole entry, the tested form may be a part): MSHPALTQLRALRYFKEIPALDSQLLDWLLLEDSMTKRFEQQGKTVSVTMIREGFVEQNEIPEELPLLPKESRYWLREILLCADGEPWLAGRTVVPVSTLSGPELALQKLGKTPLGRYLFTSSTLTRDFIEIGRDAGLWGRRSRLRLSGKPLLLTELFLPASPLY

| SMILES | Kd (AaeR (SSON_3385)) [µM] | in vitro conversion to 4-HBA (UbiC (SSON_4219)) |
| --- | --- | --- |
| O=C(O)c1ccc(O)cc1 [4-hydroxybenzoic acid] | 23.1 ± 0.76 | – |
| C=C(O[C@@H]1C=C(C(=O)O)C=C[C@H]1O)C(=O)O [chorismic acid] | – | UbiC directly catalyzed the conversion of chorismic acid to 4-HBA |
